Laboratory results: the supplement of paper PMC10307832

Experiments:
Experiment in all cases: relative viability (nuclei count vs DMSO), 5 days (fraction); higher = more cells survive
[1] = compound: Cc1ccc(C(=O)N(CCCN)[C@@H](c2nc3cc(Cl)ccc3c(=O)n2Cc2ccccc2)C(C)C)cc1 [Ispinesib] + CS(=O)(=O)CCNCc1ccc(-c2ccc3ncnc(Nc4ccc(OCc5cccc(F)c5)c(Cl)c4)c3c2)o1 [Lapatinib] (partner 2 µM)
Procedure, shortened: (§1)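 Each reported value is a median over duplicate plates. It expresses relative viability: treated-well nuclei count divided by vehicle-well nuclei count. Lung cancer cell lines in 1536-well plates were dosed by pin tool a day after seeding, alone with one drug or with a fixed anchor-drug dose plus five library-drug doses (not always all listed) in √10 steps, and nuclei were counted after 5 days.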

[2] = compound: C[C@]1(O)C[C@@H](c2nc(-c3ccc4ccc(-c5ccccc5)nc4c3)c3c(N)nccn32)C1 [Linsitinib] + CCNC(=O)c1noc(-c2cc(C(C)C)c(O)cc2O)c1-c1ccc(CN2CCOCC2)cc1 [Luminespib] (partner 0.01 µM)
Procedure, shortened: as §1

[3] = compound: C[C@]1(O)C[C@@H](c2nc(-c3ccc4ccc(-c5ccccc5)nc4c3)c3c(N)nccn32)C1 [Linsitinib] + Nc1ncn([C@H]2C[C@H](O)[C@@H](CO)O2)c(=O)n1 [Decitabine] (partner 2 µM)
Procedure, shortened: as §1

Row | Cell Line | relative viability ([1]; first compound 0.001 µM) | relative viability ([1]; first compound 0.003162 µM) | relative viability ([1]; first compound 0.01 µM) | relative viability ([1]; first compound 0.03162 µM) | relative viability ([1]; first compound 0.1 µM) | relative viability ([2]; first compound 0.01 µM) | relative viability ([2]; first compound 0.03162 µM) | relative viability ([2]; first compound 0.1 µM) | relative viability ([2]; first compound 0.3162 µM) | relative viability ([2]; first compound 1 µM) | relative viability ([3]; first compound 0.01 µM) | relative viability ([3]; first compound 0.03162 µM) | relative viability ([3]; first compound 0.1 µM) | relative viability ([3]; first compound 0.3162 µM) | relative viability ([3]; first compound 1 µM)
1 | NCI-H1650 | 0.799 | 0.715 | 0.387 | 0.211 | 0.208 | 0.196 | 0.167 | 0.235 | 0.202 | 0.172 | 0.571 | 0.449 | 0.415 | 0.325 | 0.361
2 | NCI-H1651 | 0.974 | 1.02 | 1.04 | 0.234 | 0.187 | 0.754 | 0.903 | 0.801 | 0.621 | 0.682 | 0.316 | 0.744 | 0.518 | 0.516 | 0.597
3 | NCI-H1666 | 0.703 | 0.801 | 0.596 | 0.279 | 0.292 | 0.95 | 1.08 | 1.12 | 1.07 | 1.02 | 0.622 | 0.79 | 0.732 | 0.521 | 0.602
4 | NCI-H1734 | 1.16 | 1.11 | 1.4 | 0.408 | 0.296 | 0.204 | 0.206 | 0.198 | 0.154 | 0.178 | 0.512 | 0.502 | 0.463 | 0.516 | 0.487
5 | NCI-H1755 | 1.02 | 1.16 | 1.09 | 0.41 | 0.203 | 0.41 | 0.244 | 0.419 | 0.327 | 0.469 | 0.719 | 0.856 | 0.719 | 0.559 | 0.702
6 | NCI-H1792 | 0.876 | 1.05 | 0.843 | 0.418 | 0.314 | 0.427 | 0.52 | 0.371 | 0.297 | 0.328 | 0.496 | 0.484 | 0.512 | 0.472 | 0.363
7 | NCI-H1793 | 0.655 | 0.84 | 0.909 | 0.377 | 0.238 | 0.166 | 0.205 | 0.164 | 0.149 | 0.178 | 0.428 | 0.634 | 0.547 | 0.422 | 0.454
8 | NCI-H1915 | 0.958 | 1.06 | 1 | 0.363 | 0.139 | 0.796 | 0.61 | 0.835 | 0.707 | 0.797 | 0.272 | 0.312 | 0.266 | 0.247 | 0.263
9 | NCI-H1944 | 0.863 | 0.799 | 1.01 | 0.528 | 0.27 | 0.755 | 0.793 | 0.727 | 0.637 | 0.532 | 0.426 | 0.53 | 0.422 | 0.398 | 0.341
10 | NCI-H1975 | 0.931 | 0.907 | 0.71 | 0.302 | 0.179 | 0.24 | 0.263 | 0.281 | 0.302 | 0.127 | 0.375 | 0.452 | 0.376 | 0.34 | 0.363
11 | NCI-H1993 | 0.871 | 0.899 | 0.764 | 0.759 | 0.58 | 0.751 | 0.852 | 0.835 | 0.794 | 0.498 | 0.646 | 0.564 | 0.473 | 0.506 | 0.499
12 | NCI-H2009 | 0.954 | 0.781 | 0.558 | 0.142 | 0.305 | 1.01 | 1.01 | 1.06 |  | 1.06 | 0.36 | 0.4 | 0.366 | 0.359 | 0.396
13 | NCI-H2023 | 0.771 | 0.819 | 0.424 | 0.134 | 0.115 | 0.599 | 0.627 | 0.879 | 0.646 | 0.501 | 0.213 |  | 0.239 | 0.196 | 0.243
14 | NCI-H2085 | 0.721 | 0.857 | 0.81 | 0.444 | 0.314 | 0.36 | 0.425 | 0.379 | 0.402 | 0.407 | 0.525 | 0.59 | 0.509 | 0.528 | 0.618
15 | NCI-H2087 | 0.92 | 1.04 | 1.35 | 0.293 | 0.182 | 0.167 | 0.169 | 0.132 | 0.15 | 0.142 | 0.275 | 0.387 | 0.257 | 0.259 | 0.267
16 | NCI-H2126 | 0.719 | 0.804 | 0.846 | 0.781 | 0.534 | 0.883 | 0.841 | 0.912 | 0.838 | 0.522 | 0.6 | 0.675 | 0.574 | 0.544 | 0.577
17 | NCI-H2170 | 0.265 | 0.252 | 0.269 | 0.182 | 0.214 | 0.704 | 0.761 | 0.515 | 0.557 | 0.687 | 0.445 | 0.528 | 0.461 |  | 0.468
18 | NCI-H2347 | 0.943 | 1.05 | 0.957 | 0.667 | 0.774 | 0.454 | 0.284 | 0.362 |  | 0.389 | 0.644 | 0.668 | 0.629 | 0.591 | 0.614
19 | NCI-H2405 | 1.08 | 1.12 | 1.18 | 0.918 | 0.308 | 0.762 | 0.724 | 0.653 | 0.703 | 0.475 | 0.709 | 0.813 | 0.713 | 0.686 | 0.588
20 | NCI-H3122 | 0.986 | 1.01 | 1.07 | 0.72 | 0.21 | 0.0915 | 0.1 | 0.0744 | 0.0902 | 0.0925 | 0.442 | 0.388 | 0.424 |  | 0.462
21 | PC-3 [JPC-3] | 0.456 | 0.486 | 0.439 | 0.413 | 0.318 | 0.716 | 0.69 | 0.764 | 0.669 | 0.712 | 0.822 | 0.902 | 0.91 | 0.77 | 0.814
22 | PC-14 | 0.331 | 0.397 | 0.363 | 0.421 | 0.125 | 0.217 | 0.112 | 0.18 | 0.196 | 0.103 | 0.2 | 0.196 | 0.22 | 0.158 | 0.172
23 | RERF-LC-KJ | 1.02 | 0.835 | 0.931 | 0.831 | 0.304 | 1.12 | 1.15 | 1.42 | 1.13 | 1.1 | 0.726 | 0.651 | 0.622 | 0.599 | 0.665
24 | SK-LU-1 | 0.797 | 1.06 | 0.825 | 0.468 | 0.364 | 0.212 |  | 0.203 | 0.208 | 0.215 | 0.605 | 0.635 | 0.637 | 0.624 | 0.602
25 | SK-MES-1 | 0.534 | 0.506 | 0.54 | 0.5 | 0.168 | 0.845 | 0.854 | 0.953 | 0.652 | 0.762 | 0.39 | 0.369 | 0.387 | 0.418 | 0.423
26 | SW 1573 | 1.22 | 1.16 | 1.3 | 1.25 | 0.238 | 0.22 | 0.359 | 0.238 | 0.129 | 0.238 | 0.648 | 0.589 | 0.447 | 0.472 | 0.348
